The text below walks through data of PMC6179059, “Pharmacophore-based discovery of 2-(phenylamino)aceto-hydrazides as potent eosinophil peroxidase (EPO) inhibitors” (Journal of Enzyme Inhibition and Medicinal Chemistry, 2018).

Read-outs that look alike come from different tables or passages of the source.

Experiment [1] concerns the target T1, eosinophil peroxidase (EPO) (Homo sapiens, UniProt P11678).
T1 construct: Eosinophil peroxidase was purified from human white blood cells to a purity index (A413/A280) of at least 1.0; from tissue; host or cells: human white blood cells
Briefly: Inhibition of EPO-mediated bromination, monochlorodimedone (MCD) assay. It is filed as biochemical. On the procedure:
Eosinophil peroxidase was purified from human white blood cells to a purity index (A413/A280) of at least 1.0 as described by Olsen and Little[27]. Its concentration was calculated using ε413 nm 110 000 M^−1 cm−1[28] Hydrogen peroxide, obtained as a 30% solution from Sigma Chemical Co., was diluted and the concentration determined by the absorbance measurement at 240 nm where the extinction coefficient is 39.4 M^−1 cm−1[29]. The other chemicals were also purchased from Sigma Chemical Co. at the highest grade available.
Halogenation activity was measured spectrophotometrically (Hitachi U-3000) using the monochlorodimedone (MCD) assay. MCD (100 µM) was dissolved in 100 mM phosphate buffer, pH 7.0 containing either bromide (100 mM) or chloride (100 mM) and 20 nM EPO. Upon addition of 100 µM H2O2 MCD was converted into dibromodimedone. […] If necessary the inhibitor stock solutions were prepared in dimethylsulfoxide (DMSO) and stored in dark flasks. Dilution was performed with 100 mM phosphate buffer, pH 7.0, to a final DMSO concentration of maximal 2% (v/v) in all assays. […] The inhibitor concentration that inhibited eosinophil peroxidase-dependent oxidation of MCD by 50% (IC50) was determined by fitting a rectangular hyperbola to the dose-response curve using nonlinear regression (see supplemental information A). All measurements were made in triplicate.
The 277 selected compounds were tested for inhibition. Monochlorodimedon (MCD) was used to monitor inhibition of EPO-mediated bromination. It turned out that certain compounds such as hydrazides are able to inhibit the EPO. Table 3 lists the IC50 values of four different 4-chlorophenyl derivatives of hydrazides and acetic acid. […] It is apparent that a free terminal amino group, which could act as an […] is essential for a strong inhibition, additional to steric and/or electrochemical properties of these compounds.
Supplementary Figure S1: IC 50 plots of inhibition of EPO halogenation activity. Figure A- […]
20 nM EPO and 200 µM hydrogen peroxide. Reactions were carried out in 100 mM phosphate buffer, pH 7, at 25 °C, Data are means of triplicate experiments. The inhibitory effect of each inhibitor was measured by determining the concentration at which it inhibited oxidation of MCD by 50% (IC50).

A further experiment deals with T2, EPO Compound II.
T2 construct: Eosinophil peroxidase was purified from human white blood cells to a purity index (A413/A280) of at least 1.0; from tissue; host or cells: human white blood cells
Briefly: Sequential-mixing stopped-flow: reaction/transition of EPO Compound II with inhibitors. The format is biochemical, human. Conditions: pH 7.0, 25 °C; for apparent second-order rate constant for Compound II reduction (k4): 100 mM phosphate buffer. As for the experimental part:
The sequential stopped-flow apparatus (model SX-18 MV) and the associated computer system were from Applied Photophysics (UK). Because of the inherent instability of Compound I of EPO, the sequential stopped-flow (multi-mixing) technique was used for determination of rate of the reaction of Compound I with different inhibitors. Similar to bovine LPO, human EPO Compound I could be formed with equimolar concentrations of H2O2. In a typical experiment, 2 µM EPO was premixed with 2 µM H2O2 in the aging loop. After 100 ms of delay, the formed Compound I was mixed with increasing concentrations of different inhibitors. Formation and reduction of Compound II by compound 10 was investigated by following the biphasic time trace at 423 nm, where the transition of Compound I to Compound II and further to the […] can be followed. The kinetic traces were fitted using the double-exponential equation of the Applied Photophysics software. At least three determinations (2000 data points) of pseudo-first-order rate constants (kobs) from the first phase of the reaction were performed for each substrate concentration and the mean value was used in the calculation of the second-order rate constants, which were calculated from the slope of the line defined by a plot of kobs versus substrate concentration. Compound 11 was investigated by following the biphasic time traces at 430 nm the maximum absorbance of Compound II. All reactions were followed both at single wavelengths as well as with a diode-array detector. Polychromatic data were analysed with Pro-Kineticist from Applied Photophysics. The program simultaneously fits the kinetic traces at all wavelengths to the proposed reaction mechanism and simulates the spectra of all reactant, product and intermediate species as well as their time-dependent distribution on the reaction coordinate. All measurements were done in 100 mM phosphate buffer, pH 7.0, at 25 °C with a minimum of three repeats. […]
(§1) Firstly we investigated compound 10. […] Compound I reduction with compound 10 was measured at 423 nm. […]

The subject of a further experiment is T3, EPO Compound I.
T3 construct: Eosinophil peroxidase was purified from human white blood cells to a purity index (A413/A280) of at least 1.0; from tissue; host or cells: human white blood cells
As to the kind of experiment: Sequential-mixing stopped-flow: reaction of EPO Compound I with inhibitors. It is filed as biochemical, human. Conditions: for apparent second-order rate constant for Compound I reduction (k3): 100 mM phosphate buffer, pH 7.0, 25 °C; for type of inhibition (reversible / irreversible): concluded from pre-steady-state kinetics. On the procedure:
The sequential stopped-flow apparatus (model SX-18 MV) and the associated computer system were from Applied Photophysics (UK). Because of the inherent instability of Compound I of EPO, the sequential stopped-flow (multi-mixing) technique was used for determination of rate of the reaction of Compound I with different inhibitors. Similar to bovine LPO, human EPO Compound I could be formed with equimolar concentrations of H2O2. In a typical experiment, 2 µM EPO was premixed with 2 µM H2O2 in the aging loop. After 100 ms of delay, the formed Compound I was mixed with increasing concentrations of different inhibitors. Formation and reduction of Compound II by compound 10 was investigated by following the biphasic time trace at 423 nm, where the transition of Compound I to Compound II and further to the […] can be followed. The kinetic traces were fitted using the double-exponential equation of the Applied Photophysics software. At least three determinations (2000 data points) of pseudo-first-order rate constants (kobs) from the first phase of the reaction were performed for each substrate concentration and the mean value was used in the calculation of the second-order rate constants, which were calculated from the slope of the line defined by a plot of kobs versus substrate concentration. Compound 11 was investigated by following the biphasic time traces at 430 nm the maximum absorbance of Compound II. All reactions were followed both at single wavelengths as well as with a diode-array detector. Polychromatic data were analysed with Pro-Kineticist from Applied Photophysics. The program simultaneously fits the kinetic traces at all wavelengths to the proposed reaction mechanism and simulates the spectra of all reactant, product and intermediate species as well as their time-dependent distribution on the reaction coordinate. All measurements were done in 100 mM phosphate buffer, pH 7.0, at 25 °C with a minimum of three repeats.
In order to determine the mechanism of inhibition of EPO with aceto-hydrazide, acetic acid and thioacetic acid derivatives, a pre-steady-state kinetic study was performed with sequential-mixing stopped-flow spectroscopy. Three redox intermediates are relevant in the enzymology of EPO, namely Compound I, Compound II and Compound III (Figure 3). […] Alternatively, Compound I can also be reduced back by two one-electron reduction steps via Compound II (k3 and k4), Figure 3). The ferric enzyme can be reduced to ferrous enzyme (k5). Compound III can be formed either from ferric enzyme by reversible binding of superoxide (O2^–) (k6) or from the ferrous enzyme by reversible binding of dioxygen (O2) (k7). […]
as §1

The subject of experiment [2] is dextran sulfate-induced model of ulcerative colitis. Set-up: method as in PMID 15100311. Conditions: wild-type mice; cited from earlier work.
The mark [3] stands for this setting: training and test set compounds of the pharmacophore model, read-out: EPO IC50.
[4] abbreviates: Table 4, 20 nM EPO, 100 mM bromide, 100 µM H2O2, pH 7.0, read-out: IC50 value.
Setting [5] is: Table 3, 20 nM EPO, 100 mM bromide, 100 µM H2O2, pH 7.0, read-out: IC50 value.
[6] abbreviates: as stated in text (abstract, conclusion), read-out: IC50.

T1 sequence (P11678 251-715 limits assumed): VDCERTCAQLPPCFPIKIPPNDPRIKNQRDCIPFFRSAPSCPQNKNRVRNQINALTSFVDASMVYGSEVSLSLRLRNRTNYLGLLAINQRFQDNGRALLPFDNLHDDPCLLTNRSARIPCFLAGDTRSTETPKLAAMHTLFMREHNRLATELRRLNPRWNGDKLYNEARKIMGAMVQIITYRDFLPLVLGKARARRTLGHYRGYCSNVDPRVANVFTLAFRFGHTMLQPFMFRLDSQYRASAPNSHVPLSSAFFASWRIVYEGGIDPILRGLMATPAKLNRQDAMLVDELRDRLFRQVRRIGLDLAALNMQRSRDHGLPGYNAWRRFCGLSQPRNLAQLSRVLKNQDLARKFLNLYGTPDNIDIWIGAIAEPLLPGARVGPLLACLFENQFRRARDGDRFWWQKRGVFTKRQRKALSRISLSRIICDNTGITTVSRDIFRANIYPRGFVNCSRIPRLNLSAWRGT
T1 sequence (P11678 140-250 limits assumed): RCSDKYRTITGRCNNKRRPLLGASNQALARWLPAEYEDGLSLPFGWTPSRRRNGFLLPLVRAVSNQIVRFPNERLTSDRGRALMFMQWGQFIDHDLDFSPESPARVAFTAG

A word on the IC50: it is the point on the concentration scale where inhibition reaches its midpoint. Take `C=CCNc1nc2c(c(=O)[nH]c(=O)n2C)n1CC(O)CO` (stereo not shown) [Compound 7, reference compound]: in experiment [1] (setting [3]), the half-maximal inhibitory concentration (IC50) was 1050 nM.

For `NNC(=O)CNc1ccc(Br)cc1` [Compound 17, 4-Bromo-PAAH], the IC50 in experiment [1] (setting [4]) is 823 ± 80 nM.

On to `COc1ccc2[nH]cc(CCNC(C)=O)c2c1` [Compound 8, reference compound], for which the IC50 in experiment [1] (setting [3]) stood at 2900 nM.

Consider `NNC(=O)CNc1cccc(Br)c1` [Compound 23, 3-Bromo-PAAH], for which the IC50 in experiment [1] (setting [4]) amounted to 823 ± 60 nM.

As for `NNC(=O)c1ccccc1O` [Compound 3, reference compound], the IC50 in experiment [1] (setting [3]) worked out at 75 nM.

Consider `CC/N=c1/scc(-c2ccc(O)c(C(N)=O)c2)n1CC` [Compound 6, reference compound], for which the IC50 in experiment [1] (setting [3]) amounted to 980 nM.

As to `NNC(=O)COc1ccc(Cl)cc1` [Compound 13, 2-(4-chlorophenoxy)-aceto-hydrazide], in experiment [1] (setting [5]), the half-maximal inhibitory concentration (IC50) turned out to be 4900 ± 100 nM.

Consider `NNC(=O)CNc1ccc(I)cc1` [Compound 18, 4-Iodo-PAAH], for which the IC50 in experiment [1] (setting [4]) was found to be 290 ± 20 nM.

Regarding `NNC(=O)CNc1ccccc1` [Compound 14, PAAH], the IC50 in experiment [1] (setting [4]) stood at 2900 ± 100 nM.

`NNC(=O)CNc1ccc(F)cc1` [Compound 16, 4-Fluoro-PAAH]: the concentration for half-maximal inhibition (IC50) in experiment [1] (setting [4]) is 172 ± 30 nM.

Take `NNC(=O)CSc1ccc(Cl)cc1` [Compound 12, 2-(4-chlorophenyl) thio-acetohydrazide]: the “apparent second-order rate constant for Compound II reduction (k4)” value in the experiment on EPO Compound II is 140000 M⁻¹ s⁻¹.

Turning to `NNC(=O)CNc1ccc(F)c(Cl)c1` [Compound 21, 3-Chloro-4-fluoro-PAAH], the IC50 in experiment [1] (setting [4]) is 34 ± 5 nM.

`Cc1ccc(NCC(=O)NN)cc1` [Compound 15, 4-Methyl-PAAH]: the half-inhibitory concentration (IC50) in experiment [1] (setting [4]) was determined as 2270 ± 90 nM.

As for `NNc1cc(Cl)ccc1[N+](=O)[O-]` [Compound 5, reference compound], the IC50 in experiment [1] (setting [3]) worked out at 770 nM.

Consider `NNC(=O)CNc1ccc(F)cc1F` [Compound 20, 2,4-di Fluoro-PAAH], for which, in experiment [1] (setting [4]), the half-maximal inhibitory concentration (IC50) is 20 ± 6 nM.

For `NNC(=O)CNc1ccccc1F` [Compound 19, 2-[(2-fluorophenyl)amino]-aceto-hydrazide], the values for the half-maximal inhibitory concentration (IC50) in experiment [1] (setting [4]) and in experiment [1] (setting [6]) were 10 ± 5 nM and 10 nM, respectively.

Take `Cn1c(=O)[nH]c(=O)c2c1nc(NCCCO)n2CCO` [Compound 2, reference compound]: the IC50 in experiment [1] (setting [3]) is 120 nM.

In the case of `NNC(=O)CNc1ccccc1Cl` [Compound 22, 2-Chloro-PAAH], in experiment [1] (setting [4]), the concentration for half-maximal inhibition (IC50) is 910 ± 40 nM.

With `O=C(O)CNc1ccc(Cl)cc1` [Compound 11, 2-[(4-chlorophenyl)amino]-acetic acid], in the experiment with EPO Compound I, the “apparent second-order rate constant for Compound I reduction (k3)” value is 6.9e+06 M⁻¹ s⁻¹ and the “type of inhibition (reversible / irreversible)” value was “reversible inhibitor”. In experiment [1] (setting [5]), the IC50 was 205 ± 30 nM. The “apparent second-order rate constant for Compound II reduction (k4)” value in the experiment with EPO Compound II amounted to 11000 M⁻¹ s⁻¹.

In the case of `NNC(=O)c1ccc(O)cc1O` [Compound 9, reference compound], in experiment [1] (setting [3]), the IC50 was determined as 3520 nM.

`NNC(=O)c1nn(-c2ccccc2)cc1O` [Compound 4, reference compound]: the IC50 in experiment [1] (setting [3]) stood at 420 nM.

For the compound `Oc1cccc(O)c1` [resorcinol], the “disease activity parameters (weight loss, colon shrinkage, colonic bleeding)” value in experiment [2] was “diminished”.

In the case of `NNC(=O)c1nn(-c2ccccc2C(F)(F)F)cc1O` [Compound 1, reference compound], the half-inhibitory concentration (IC50) in experiment [1] (setting [3]) was 50 nM.

As to `NNC(=O)CNc1ccc(Cl)cc1` [Compound 10, 2-[(4-chlorophenyl)amino]-acetohydrazide], in the experiment with EPO Compound I, the “apparent second-order rate constant for Compound I reduction (k3)” value was found to be 9.2e+06 M⁻¹ s⁻¹ and the “type of inhibition (reversible / irreversible)” value is listed as “irreversible inhibitor”. Moreover, the IC50 in experiment [1] (setting [6]) came to 21 nM. In the experiment with EPO Compound II (independent of inhibitor concentration), the “rate constant for transition Compound II - Compound III” value was approximately 1.2 s⁻¹.
